Laboratory results from ChEMBL document CHEMBL5356933, “Dual functional therapeutics: mitigating bacterial infection and associated inflammation” (RSC Med Chem, 2023).
≈ marks a conversion by molar mass, not a printed value. Residues, ends and D or L forms follow the SMILES beside them.

Columns and labels:
Escherichia coli [1] = assay: Antibacterial activity against Escherichia coli assessed as reduction in bacterial growth by broth micro-dilution method; format: functional
Streptococcus pneumoniae = assay: Antibacterial activity against Streptococcus pneumoniae ATCC 49619 assessed as reduction in bacterial growth; format: functional
Staphylococcus aureus [2] = assay: Antibacterial activity against methicillin-resistant Staphylococcus aureus ATCC 33591 assessed as reduction in bacterial growth incubated for 24 hrs by agar plate method; format: functional
Escherichia coli [3] = assay: Antimicrobial activity against Escherichia coli ATCC 25922 assessed as reduction in microbial growth incubated for 24 hrs by CLSI based broth microdilution method; format: functional
Acinetobacter baumannii = assay: Antibacterial activity against Acinetobacter baumannii ATCC 19606 assessed as bacterial growth inhibition at 32 ug/ml measured after 16 hrs by broth microdilution method; format: functional; conditions: dose 32 µg/ml
J774.A1 [4] = assay: Antiinflammatory activity against mouse J774.A1 cells assessed as inhibition of LPS-stimulated TNFalpha release measured at 10 uM after 30 mins by ELISA relative to control; format: functional; parameters: scale not given: the % may be the effect or the level left; conditions: 0.5 h
J774.A1 [5] = assay: Antiinflammatory activity in mouse J774.A1 cells assessed as decrease in LPS-induced IL-6 secretion at 20 uM preincubated for 30 mins followed by LPS stimulation and measured after 24 hrs by ELISA; format: functional; parameters: scale not given: the % may be the effect or the level left; conditions: time 1470 min, 24.5 h
[6] = Hemolytic activity in human RBC assessed as hemolysis up to 100 microg/ml measured after 1 hr; format: toxicity, cell-based, Erythrocyte; conditions: red blood cells (erythrocytes), dose < 100 µg/ml
Escherichia coli [7] = assay: Antibacterial activity against Escherichia coli ATCC 25922 assessed as inhibition of bacterial growth incubated for 16 to 18 hrs by broth microdilution method; format: functional; conditions: time 16-18 hrs
Staphylococcus aureus [8] = assay: Antibacterial activity against Staphylococcus aureus ATCC 33591 assessed as reduction in bacterial growth; format: functional
[9] = tested on: Staphylococcus epidermidis; assay: Antibacterial activity against Staphylococcus epidermidis assessed as reduction in microbial growth incubated for 24 hrs by broth micro-dilution method; format: functional
Escherichia coli [10] = assay: Antibacterial activity against Escherichia coli ATCC 25922 assessed as reduction in bacterial growth by broth microdilution method; format: functional
Pseudomonas aeruginosa = assay: Antibacterial activity against multi-drug resistant Pseudomonas aeruginosa assessed as reduction in bacterial growth by broth microdilution method; format: functional
RAW264.7 [11] = assay: Anti-inflammatory activity against mouse RAW264.7 cells assessed as inhibition of LPS-induced NO production at 20 ug/ml relative to control; format: functional; parameters: scale not given: the % may be the effect or the level left; conditions: dose 20 µg/ml
RAW264.7 [12] = assay: Antiinflammatory activity in LPS-induced mouse RAW264.7 cells assessed as reduction in TNF alpha level at 20 ug/ml measured after 72 hrs by ELISA assay relative to control; format: functional; parameters: scale not given: the % may be the effect or the level left; conditions: dose 20 µg/ml
RAW264.7 [13] = assay: Anti-inflammatory activity in mouse RAW264.7 cells assessed as reduction in LPS-induced IL-6 mRNA expression at 20 ug/ml incubated for 24 hrs by qPCR analysis relative to control; format: functional; parameters: scale not given: the % may be the effect or the level left; conditions: dose 20 µg/ml
RAW264.7 [14] = assay: Immunosuppressive activity in LPS-treated mouse RAW264.7 cells assessed as inhibition of MCP-1 level at 20 ug/ml incubated for 24 hrs by ELISA analysis relative to control; format: functional; parameters: scale not given: the % may be the effect or the level left; conditions: dose 20 µg/ml
RAW264.7 [15] = assay: Anti-inflammatory activity against mouse RAW264.7 cells assessed as inhibition of LPS-induced NO production at 10 uM incubated for 24 hrs by Griess reagent based analysis relative to control; format: functional; parameters: scale not given: the % may be the effect or the level left
RAW264.7 [16] = assay: Antiinflammatory activity against LPS-stimulated mouse RAW264.7 cells assessed as inhibition of TNFalpha production at 10 uM preincubated for 27 hrs followed by LPS stimulation and measured after 12 hrs by ELISA analysis relative to control; format: functional; parameters: scale not given: the % may be the effect or the level left; conditions: time 39 hrs
Enterococcus faecium = assay: Antibacterial activity against Enterococcus faecium clinical isolate assessed as reduction in cell growth incubated for 48 hrs by broth micro-dilution method; format: functional
Staphylococcus aureus [17] = assay: Antibacterial activity against Staphylococcus aureus clinical isolate assessed as reduction in cell growth incubated for 48 hrs by broth micro-dilution method; format: functional
Klebsiella pneumoniae = assay: Antibacterial activity against Klebsiella pneumoniae clinical isolate assessed as reduction in cell growth incubated for 48 hrs by broth micro-dilution method; format: functional
RAW264.7 [18] = assay: Anti-inflammatory activity against mouse RAW264.7 cells assessed as reduction in LPS-induced TNFalpha production relative to control; format: functional; parameters: scale not given: the % may be the effect or the level left
RAW264.7 [19] = assay: Anti-inflammatory activity against mouse RAW264.7 cells assessed as reduction in LPS-induced IL-6 mRNA production relative to control; format: functional; parameters: scale not given: the % may be the effect or the level left
[20] = Acute toxicity in Kunming mouse assessed as survival rate at 40 ug/kg, ip administered once daily for 14 days relative to control; format: organism-based; conditions: in vivo, 0.04 mg/kg, time 14 day, read-out: Activity
[21] = Acute toxicity in Kunming mouse assessed as survival rate at 80 ug/kg, ip administered once daily for 14 days relative to control; format: organism-based; conditions: in vivo, 0.08 mg/kg, time 14 day, read-out: Activity
[22] = Acute toxicity in Kunming mouse assessed as survival rate at 160 ug/kg, ip administered once daily for 14 days relative to control; format: organism-based; conditions: in vivo, 0.16 mg/kg, time 14 day, read-out: Activity
RAW264.7 [23] = assay: Antiinflammatory activity against LPS-induced mouse RAW264.7 cells assessed as reduction in IL-6 mRNA expression incubated for 24 hrs by RT-PCR analysis relative to control; format: functional; parameters: scale not given: the % may be the effect or the level left
RAW264.7 [24] = assay: Antiinflammatory activity against mouse RAW264.7 cells assessed as reduction in TNF alpha production incubated for 24 hrs by ELISA method relative to control; format: functional; parameters: scale not given: the % may be the effect or the level left

NCCCOc1cc(OCCCN)cc(-c2cc(-c3ccccc3)cc(-c3cc(OCCCN)cc(OCCCN)c3)c2)c1
MIC (Escherichia coli [1]): 3.13 µg/mL (≈ 5.23 µM)

CCCCCCCCCCN(Cc1cccc2ccccc12)C(=O)[C@@H](N)CCCCN
MIC (Streptococcus pneumoniae): 4.1 µM (≈ 1.75 µg/mL)

CCCCCCN(Cc1ccc(-c2ccc(CN(CCCCCC)C(=O)[C@@H](N)CCCCN)cc2)cc1)C(=O)[C@@H](N)CCCCN
MIC (Staphylococcus aureus [2]): 3.1 µg/mL (≈ 4.87 µM)

CCCCCCCCCCCCCCCC(=O)N(CC(N)=O)C[C@H](CCCCN)NC(=O)N1C[C@H](Cc2ccccc2)NC(=O)CN(C(=O)CCCN)C[C@H](Cc2ccccc2)NC(=O)CN(C(=O)CCCN)C[C@H](Cc2ccccc2)NC(=O)CN(C(=O)CCCN)C[C@H](Cc2ccccc2)NC(=O)CCC1=O
MIC (Escherichia coli [3]): 1 µM

CC[C@H](C)[C@@H](NC(=O)[C@@H](CCCNC(=N)N)NC(=O)[C@@H](CCCNC(=N)N)NC(=O)[C@@H](CC(C)C)NC(=O)[C@@H](Cc1c[nH]c2ccccc12)NC(=O)[C@@H](C)NC(=O)[C@@H](CCCCN)NC(=O)[C@H](NC(=O)[C@@H](CCCNC(=N)N)NC(=O)[C@@H](CCCNC(=N)N)NC(=O)[C@@H](CC(C)C)NC(=O)[C@H](N)Cc1c[nH]c2ccccc12)[C@@H](C)CC)C(=O)N[C@H](CCCCN)C(=O)N[C@H](C)C(N)=O
MIC (Acinetobacter baumannii): 2 µM (≈ 3.73 µg/mL) | Activity (J774.A1 [4]): 64.7% | Activity (J774.A1 [5]): 96.4%

CCOC(=O)[C@H](Cc1ccccc1)NC(=O)C[N+](C)(C)CCCCCCCCCCCC[N+](C)(C)CC(=O)N[C@H](Cc1ccccc1)C(=O)OCC
HC50 at 1 h [6]: 758 µg/mL | MIC (Escherichia coli [7]): 0.9 µg/mL

CCCCCCCCCCCCCCCC(=O)N(CCNC(=O)CN1C[C@H](Cc2ccccc2)NC(=O)[C@H](CCCCN)N(C(=O)CCc2ccccc2)CCNC(=O)[C@H](CCCCN)N(C(=O)CCc2ccccc2)CCNC(=O)[C@H](CCCCN)N(C(=O)CCc2ccccc2)CCNC(=O)CCC1=O)[C@@H](CCCCN)C(N)=O
MIC (Staphylococcus aureus [8]): 2.4 µM (≈ 3.86 µg/mL) | MIC [9]: 0.6 µM

CC[C@H](C)[C@H](NC(=O)[C@H](Cc1cnc[nH]1)NC(=O)[C@H](CO)NC(=O)[C@@H](NC(=O)[C@@H](NC(=O)[C@@H](NC(=O)[C@@H](NC(=O)[C@H](CCCNC(=N)N)NC(=O)[C@H](CC(C)C)NC(=O)[C@H](CCCCN)NC(=O)[C@H](CCC(=O)O)NC(=O)[C@H](CCCCN)NC(=O)[C@H](CC(C)C)NC(=O)[C@H](CCCCN)NC(=O)[C@H](CS)NC(=O)[C@H](CC(C)C)NC(=O)[C@H](Cc1ccccc1)NC(=O)[C@H](CC(N)=O)NC(=O)[C@H](CS)NC(=O)[C@@H](N)CCCCN)[C@@H](C)O)C(C)C)[C@@H](C)CC)[C@@H](C)O)C(=O)N[C@@H](CC(=O)O)C(=O)N[C@@H](CCCCN)C(=O)N[C@H](C(=O)N[C@@H](CC(C)C)C(=O)N[C@@H](CCCNC(=N)N)C(=O)N1CCC[C@H]1C(=O)N[C@@H](CCC(N)=O)C(=O)NCC(N)=O)C(C)C (H-KCNFLCKLKEKLRTVITSHIDKVLRPQG-NH2)
MIC (Escherichia coli [10]): 4.69 µg/mL (≈ 1.44 µM) | MIC (Pseudomonas aeruginosa): 37.5 µg/mL (≈ 11.5 µM) | Activity (RAW264.7 [11]): 70% | Activity (RAW264.7 [12]): 60% | Activity (RAW264.7 [13]): 86% | Activity (RAW264.7 [14]): 68%

CC(C)C[C@H](NC(=O)[C@H](Cc1c[nH]c2ccccc12)NC(=O)[C@H](CCCCN)NC(=O)[C@H](CCCCN)NC(=O)[C@H](Cc1c[nH]c2ccccc12)NC(=O)[C@H](CCCCN)NC(=O)[C@H](CCCCN)NC(=O)[C@H](Cc1c[nH]c2ccccc12)NC(=O)[C@H](CC(C)C)NC(=O)[C@@H](N)CCCCN)C(=O)N[C@@H](CCCCN)C(N)=O (H-KLWKKWKKWLK-NH2)
Activity (RAW264.7 [15]): 50%

CC[C@H](C)[C@H](NC(=O)[C@H](CCCNC(=N)N)NC(=O)[C@H](CCCCN)NC(=O)[C@@H](NC(=O)[C@@H](NC(=O)[C@H](CCCNC(=N)N)NC(=O)[C@@H](N)CCCCN)[C@@H](C)CC)C(C)C)C(=O)N[C@@H](CCCCN)C(=O)N[C@@H](CCCCN)C(=O)N[C@@H](Cc1c[nH]c2ccccc12)C(=O)N[C@@H](CC(C)C)C(=O)N[C@@H](CCCNC(=N)N)C(N)=O (H-KRIVKRIKKWLR-NH2)
Activity (RAW264.7 [16]): 74.2%

CC[C@H](C)[C@H](NC(=O)[C@H](Cc1c[nH]c2ccccc12)NC(=O)[C@H](CCCNC(=N)N)NC(=O)[C@H](CCC(N)=O)NC(=O)[C@@H](NC(=O)[C@H](Cc1c[nH]c2ccccc12)NC(=O)[C@H](CCCNC(=N)N)NC(=O)[C@@H](N)CCCNC(=N)N)C(C)C)C(=O)N[C@@H](CCCNC(=N)N)C(=O)N[C@@H](CCCNC(=N)N)C(=O)N[C@@H](Cc1c[nH]c2ccccc12)C(=O)N[C@@H](CCCNC(=N)N)C(=O)N[C@@H](CCCCN)C(=O)N[C@@H](Cc1c[nH]c2ccccc12)C(=O)N[C@H](C(=O)O)C(C)C (H-RRWVQRWIRRWRKWV-OH)
MIC (Enterococcus faecium): 5 µM (≈ 11.3 µg/mL) | MIC (Staphylococcus aureus [17]): 5 µM (≈ 11.3 µg/mL) | MIC (Klebsiella pneumoniae): 5 µM (≈ 11.3 µg/mL)

CC(C)C[C@H](NC(=O)CNC(=O)[C@H](Cc1ccccc1)NC(=O)[C@H](CCCNC(=N)N)NC(=O)[C@H](CCCNC(=N)N)NC(=O)CNC(=O)[C@H](Cc1cnc[nH]1)NC(=O)[C@H](CCCNC(=N)N)NC(=O)CNC(=O)[C@@H](NC(=O)[C@H](C)NC(=O)[C@@H](N)CO)C(C)C)C(=O)N[C@@H](CCCNC(=N)N)C(=O)N[C@@H](CCCCN)C(=O)N[C@@H](Cc1cnc[nH]1)C(=O)N[C@@H](CCCNC(=N)N)C(=O)N[C@@H](CCCCN)C(=O)N[C@@H](Cc1cnc[nH]1)C(=O)O (H-SAVGRHGRRFGLRKHRKH-OH)
Activity (RAW264.7 [18]): >50% | Activity (RAW264.7 [19]): >50% | survival at 336 h [20]: 10% | survival at 336 h [21]: 70% | survival at 336 h [22]: 75% | Activity (RAW264.7 [23]): 46% | Activity (RAW264.7 [24]): 75%
